# Values quoted from earlier work as cited in patent US20230265432A1, “METHODS AND COMPOSITIONS FOR TREATING ACUTE MYELOID LEUKEMIA” (Sanford Burnham Prebys Medical Discovery Institute, priority 2021, published 2023).
# Structures can show the parent of a compound that is named as a salt.
# Columns and labels:
# [1] = tested on: various cancer cell lines; details: proliferation; cited from earlier work
# [2] = target: SIRT2 (Homo sapiens, UniProt Q8IXJ6); details: cited from earlier work
# [3] = target: SIRT3 (Homo sapiens, UniProt Q9NTG7); details: cited from earlier work
# [4] = tested on: HDAC activity in HeLa cell nuclear lysates; details: cited from earlier work
# [5] = target: jumonji histone demethylase (JMJD2); details: cited from earlier work
# [6] = target: SMYD2 (Homo sapiens, UniProt Q9NRG4); details: cited from earlier work
# [7] = tested on: neuroblastoma tumor; details: 200 mg/kg; cited from earlier work
# [8] = target: EZH1 (Homo sapiens, UniProt Q92800); details: cited from earlier work
# Sequence of EZH1 (Q92800 whole entry, species assumed): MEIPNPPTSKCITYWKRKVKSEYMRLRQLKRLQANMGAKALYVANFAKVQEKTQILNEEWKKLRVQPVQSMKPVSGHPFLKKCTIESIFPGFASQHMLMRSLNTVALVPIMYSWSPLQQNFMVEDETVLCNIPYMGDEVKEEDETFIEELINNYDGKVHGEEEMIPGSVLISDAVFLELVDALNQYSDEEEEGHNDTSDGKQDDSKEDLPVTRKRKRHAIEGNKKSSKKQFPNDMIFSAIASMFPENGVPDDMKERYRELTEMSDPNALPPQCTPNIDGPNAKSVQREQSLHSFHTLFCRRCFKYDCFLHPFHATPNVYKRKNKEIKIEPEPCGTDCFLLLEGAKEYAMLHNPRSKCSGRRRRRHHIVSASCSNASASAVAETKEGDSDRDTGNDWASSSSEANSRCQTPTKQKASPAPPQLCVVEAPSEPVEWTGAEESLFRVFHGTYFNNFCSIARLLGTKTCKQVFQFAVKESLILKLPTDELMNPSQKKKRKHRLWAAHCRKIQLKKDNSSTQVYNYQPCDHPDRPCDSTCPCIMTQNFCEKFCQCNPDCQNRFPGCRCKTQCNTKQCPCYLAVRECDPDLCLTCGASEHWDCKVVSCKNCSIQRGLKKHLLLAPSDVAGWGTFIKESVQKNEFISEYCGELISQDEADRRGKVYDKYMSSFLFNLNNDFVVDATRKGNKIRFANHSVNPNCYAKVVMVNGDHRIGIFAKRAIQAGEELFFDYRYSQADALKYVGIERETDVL
# Sequence of EZH1 (O75530 whole entry partner, species assumed): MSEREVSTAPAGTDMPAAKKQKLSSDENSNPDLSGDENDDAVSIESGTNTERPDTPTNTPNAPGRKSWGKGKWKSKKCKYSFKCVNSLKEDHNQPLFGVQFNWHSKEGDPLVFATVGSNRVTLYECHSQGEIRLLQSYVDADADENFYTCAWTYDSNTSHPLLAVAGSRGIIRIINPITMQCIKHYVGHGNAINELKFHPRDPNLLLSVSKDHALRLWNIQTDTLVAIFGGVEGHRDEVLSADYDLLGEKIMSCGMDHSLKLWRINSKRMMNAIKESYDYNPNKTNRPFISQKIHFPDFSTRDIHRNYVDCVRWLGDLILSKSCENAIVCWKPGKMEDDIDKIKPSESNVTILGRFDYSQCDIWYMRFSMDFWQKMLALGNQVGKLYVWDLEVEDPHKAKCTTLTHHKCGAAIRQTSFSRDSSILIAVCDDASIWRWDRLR
# Sequence of EZH1 (Q15022 whole entry partner, species assumed): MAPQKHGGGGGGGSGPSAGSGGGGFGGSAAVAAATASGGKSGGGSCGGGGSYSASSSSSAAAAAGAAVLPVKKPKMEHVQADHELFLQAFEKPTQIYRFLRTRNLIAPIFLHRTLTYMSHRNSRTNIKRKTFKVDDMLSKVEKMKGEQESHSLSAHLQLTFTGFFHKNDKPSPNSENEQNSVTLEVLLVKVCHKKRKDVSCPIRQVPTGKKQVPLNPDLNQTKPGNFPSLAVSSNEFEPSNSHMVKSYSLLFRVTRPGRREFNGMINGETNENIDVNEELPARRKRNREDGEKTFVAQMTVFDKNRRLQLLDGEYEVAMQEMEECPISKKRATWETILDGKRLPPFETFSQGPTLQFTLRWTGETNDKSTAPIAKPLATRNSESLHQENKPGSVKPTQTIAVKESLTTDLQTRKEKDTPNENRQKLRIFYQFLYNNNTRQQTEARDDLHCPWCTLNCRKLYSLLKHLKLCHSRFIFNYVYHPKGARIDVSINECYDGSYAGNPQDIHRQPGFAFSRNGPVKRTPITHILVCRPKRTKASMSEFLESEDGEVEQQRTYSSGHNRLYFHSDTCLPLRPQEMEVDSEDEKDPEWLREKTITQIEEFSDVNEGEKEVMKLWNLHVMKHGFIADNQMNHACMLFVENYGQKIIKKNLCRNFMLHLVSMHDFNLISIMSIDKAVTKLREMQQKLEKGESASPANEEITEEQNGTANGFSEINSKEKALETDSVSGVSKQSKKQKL
# Sequence of EZH1 (Q09028 whole entry partner, species assumed): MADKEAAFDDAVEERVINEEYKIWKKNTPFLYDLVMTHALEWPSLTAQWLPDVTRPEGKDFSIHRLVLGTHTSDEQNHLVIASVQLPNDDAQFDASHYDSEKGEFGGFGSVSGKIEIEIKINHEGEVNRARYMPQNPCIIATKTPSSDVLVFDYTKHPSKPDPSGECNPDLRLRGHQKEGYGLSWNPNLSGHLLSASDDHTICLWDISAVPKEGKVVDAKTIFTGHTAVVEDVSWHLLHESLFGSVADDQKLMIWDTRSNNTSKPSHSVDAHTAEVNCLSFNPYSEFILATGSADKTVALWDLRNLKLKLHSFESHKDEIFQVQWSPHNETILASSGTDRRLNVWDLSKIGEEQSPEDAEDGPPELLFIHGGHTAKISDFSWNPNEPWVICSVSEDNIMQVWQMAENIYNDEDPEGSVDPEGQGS
# [9] = tested on: EZH2 mutant DLBCL cell lines; details: proliferation; cited from earlier work
# [10] = target: WDR5 (Homo sapiens, UniProt P61964); details: cited from earlier work
# [11] = target: MLL core complex (Homo sapiens, UniProt P61964); details: in vitro; cited from earlier work
# [12] = tested on: p53K370 monomethylation in cells; details: cited from earlier work
# [13] = target: BRD2 (Homo sapiens, UniProt P25440); details: cited from earlier work
# [14] = target: BRD3 (Homo sapiens, UniProt Q15059); details: cited from earlier work
# [15] = target: yeast Hmt1p (Saccharomyces cerevisiae, UniProt P38074); details: cited from earlier work
# [16] = target: T1, HIV-1 reverse transcriptase (Human immunodeficiency virus type 1 group M subtype B, UniProt P04585); details: cited from earlier work
# T1 construct: HIV-1 reverse transcriptase
# [17] = target: UTX (Homo sapiens, UniProt O15550); details: as measured by mass spectrometry; cited from earlier work
# [18] = tested on: phosphorylation of histone 2A at Thr120 in DU-145 human prostate cancer cells; details: cited from earlier work
# [19] = target: MOF (Homo sapiens, UniProt Q9H7Z6); details: cited from earlier work
# [20] = tested on: PARP; details: cited from earlier work
# [21] = target: EZH2 (Homo sapiens, UniProt Q15910); details: cited from earlier work
# Sequence of EZH2 (Q15910 whole entry, species assumed): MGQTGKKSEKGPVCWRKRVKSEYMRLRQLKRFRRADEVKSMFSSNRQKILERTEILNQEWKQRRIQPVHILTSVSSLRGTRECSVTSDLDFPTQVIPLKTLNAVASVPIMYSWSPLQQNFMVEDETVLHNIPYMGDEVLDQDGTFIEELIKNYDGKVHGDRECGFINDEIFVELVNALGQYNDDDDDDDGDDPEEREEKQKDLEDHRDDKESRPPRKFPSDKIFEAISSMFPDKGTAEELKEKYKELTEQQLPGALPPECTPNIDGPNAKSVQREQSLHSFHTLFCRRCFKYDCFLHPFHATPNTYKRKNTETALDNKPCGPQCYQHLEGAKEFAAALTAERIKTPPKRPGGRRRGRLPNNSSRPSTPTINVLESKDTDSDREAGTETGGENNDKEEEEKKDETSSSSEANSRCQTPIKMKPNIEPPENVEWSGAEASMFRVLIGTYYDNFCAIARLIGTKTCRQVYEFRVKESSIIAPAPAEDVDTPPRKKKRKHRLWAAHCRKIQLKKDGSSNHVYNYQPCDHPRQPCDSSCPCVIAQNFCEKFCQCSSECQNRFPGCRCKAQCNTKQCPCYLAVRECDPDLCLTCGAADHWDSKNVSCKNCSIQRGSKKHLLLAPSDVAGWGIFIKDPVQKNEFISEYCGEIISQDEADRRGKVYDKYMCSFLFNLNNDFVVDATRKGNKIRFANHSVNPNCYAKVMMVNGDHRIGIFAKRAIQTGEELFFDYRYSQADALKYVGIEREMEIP
# [22] = tested on: H3K27methylation in MCF10A cells; details: cited from earlier work
# [23] = tested on: trimethylation of H3K27 in HCC1806 cells; details: cited from earlier work
# [24] = target: SIRT5 (Homo sapiens, UniProt Q9NXA8); details: cited from earlier work
# [25] = target: HDAC2 (Homo sapiens, UniProt Q92769); details: cited from earlier work
# [26] = target: HDAC4 (Homo sapiens, UniProt P56524); details: cited from earlier work
# [27] = tested on: HCT116; details: cited from earlier work
# [28] = tested on: HuT-78 cells; details: cited from earlier work
# [29] = tested on: human dermal fibroblasts; details: cited from earlier work
# [30] = target: T2, HDAC6 (Homo sapiens, UniProt Q9UBN7); details: cited from earlier work
# T2 sequence (Q9UBN7 1-1215): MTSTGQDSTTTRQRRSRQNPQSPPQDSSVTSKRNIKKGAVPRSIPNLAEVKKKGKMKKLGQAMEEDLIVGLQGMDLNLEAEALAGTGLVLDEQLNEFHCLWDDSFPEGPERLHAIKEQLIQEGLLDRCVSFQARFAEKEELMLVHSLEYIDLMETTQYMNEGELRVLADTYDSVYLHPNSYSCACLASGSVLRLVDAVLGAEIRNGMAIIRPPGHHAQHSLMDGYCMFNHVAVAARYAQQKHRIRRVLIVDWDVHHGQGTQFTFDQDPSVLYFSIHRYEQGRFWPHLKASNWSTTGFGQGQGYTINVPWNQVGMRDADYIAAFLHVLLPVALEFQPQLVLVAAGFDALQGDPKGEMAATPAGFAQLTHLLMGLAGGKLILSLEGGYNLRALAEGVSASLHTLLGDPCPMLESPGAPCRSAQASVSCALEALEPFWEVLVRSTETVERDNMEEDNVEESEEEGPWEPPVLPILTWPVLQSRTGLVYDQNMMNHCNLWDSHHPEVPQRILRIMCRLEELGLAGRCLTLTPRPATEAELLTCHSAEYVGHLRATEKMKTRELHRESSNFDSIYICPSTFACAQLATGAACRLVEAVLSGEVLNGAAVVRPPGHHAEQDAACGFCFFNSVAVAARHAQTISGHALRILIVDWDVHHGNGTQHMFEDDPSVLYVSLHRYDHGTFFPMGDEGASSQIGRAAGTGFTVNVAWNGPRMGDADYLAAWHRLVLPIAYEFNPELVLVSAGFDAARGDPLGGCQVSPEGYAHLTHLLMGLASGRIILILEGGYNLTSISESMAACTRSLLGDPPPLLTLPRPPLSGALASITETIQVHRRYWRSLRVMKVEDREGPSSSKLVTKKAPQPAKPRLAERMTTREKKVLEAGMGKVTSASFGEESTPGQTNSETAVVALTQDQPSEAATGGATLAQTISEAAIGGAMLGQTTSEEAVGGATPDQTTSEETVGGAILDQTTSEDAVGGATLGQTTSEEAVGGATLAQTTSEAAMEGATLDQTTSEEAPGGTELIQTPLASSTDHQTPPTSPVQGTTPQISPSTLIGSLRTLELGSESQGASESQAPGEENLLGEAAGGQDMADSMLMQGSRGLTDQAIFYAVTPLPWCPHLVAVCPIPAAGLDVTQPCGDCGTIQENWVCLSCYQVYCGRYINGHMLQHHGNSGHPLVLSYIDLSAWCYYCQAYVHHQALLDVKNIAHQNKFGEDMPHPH
# [31] = target: CBP (Homo sapiens, UniProt Q92793); details: cited from earlier work
# Sequence of CBP (Q92793 1081-1197 limits assumed): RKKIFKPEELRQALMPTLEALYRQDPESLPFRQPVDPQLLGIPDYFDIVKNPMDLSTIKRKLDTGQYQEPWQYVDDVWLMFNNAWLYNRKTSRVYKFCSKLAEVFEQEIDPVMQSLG
# [32] = target: EGFR (Homo sapiens, UniProt P00533); details: cited from earlier work
# [33] = target: EZH2 (Y641F) (Homo sapiens, UniProt Q15910, Y641F); details: cited from earlier work
# Sequence of EZH2 (Y641F) (Q15910 whole entry Y641F, species assumed): as the sequence (Q15910 whole entry, species assumed) above, with Y641F counted along it
# Sequence of EZH2 (Y641F) (O75530 whole entry partner, species assumed): as the sequence (O75530 whole entry partner, species assumed) above
# Sequence of EZH2 (Y641F) (Q15022 whole entry partner, species assumed): as the sequence (Q15022 whole entry partner, species assumed) above
# Sequence of EZH2 (Y641F) (Q09028 whole entry partner, species assumed): as the sequence (Q09028 whole entry partner, species assumed) above
# [34] = target: GLP (Homo sapiens, UniProt Q9H9B1); details: cited from earlier work
# [35] = tested on: H3K9 dimethylation in MDA-MB231 cells; details: cited from earlier work
# [36] = target: REV-ERBa (Homo sapiens, UniProt P20393); details: agonist; cited from earlier work
# [37] = target: JMJD2A (Homo sapiens, UniProt O75164); details: cited from earlier work
# Sequence of JMJD2A (O75164 whole entry, species assumed): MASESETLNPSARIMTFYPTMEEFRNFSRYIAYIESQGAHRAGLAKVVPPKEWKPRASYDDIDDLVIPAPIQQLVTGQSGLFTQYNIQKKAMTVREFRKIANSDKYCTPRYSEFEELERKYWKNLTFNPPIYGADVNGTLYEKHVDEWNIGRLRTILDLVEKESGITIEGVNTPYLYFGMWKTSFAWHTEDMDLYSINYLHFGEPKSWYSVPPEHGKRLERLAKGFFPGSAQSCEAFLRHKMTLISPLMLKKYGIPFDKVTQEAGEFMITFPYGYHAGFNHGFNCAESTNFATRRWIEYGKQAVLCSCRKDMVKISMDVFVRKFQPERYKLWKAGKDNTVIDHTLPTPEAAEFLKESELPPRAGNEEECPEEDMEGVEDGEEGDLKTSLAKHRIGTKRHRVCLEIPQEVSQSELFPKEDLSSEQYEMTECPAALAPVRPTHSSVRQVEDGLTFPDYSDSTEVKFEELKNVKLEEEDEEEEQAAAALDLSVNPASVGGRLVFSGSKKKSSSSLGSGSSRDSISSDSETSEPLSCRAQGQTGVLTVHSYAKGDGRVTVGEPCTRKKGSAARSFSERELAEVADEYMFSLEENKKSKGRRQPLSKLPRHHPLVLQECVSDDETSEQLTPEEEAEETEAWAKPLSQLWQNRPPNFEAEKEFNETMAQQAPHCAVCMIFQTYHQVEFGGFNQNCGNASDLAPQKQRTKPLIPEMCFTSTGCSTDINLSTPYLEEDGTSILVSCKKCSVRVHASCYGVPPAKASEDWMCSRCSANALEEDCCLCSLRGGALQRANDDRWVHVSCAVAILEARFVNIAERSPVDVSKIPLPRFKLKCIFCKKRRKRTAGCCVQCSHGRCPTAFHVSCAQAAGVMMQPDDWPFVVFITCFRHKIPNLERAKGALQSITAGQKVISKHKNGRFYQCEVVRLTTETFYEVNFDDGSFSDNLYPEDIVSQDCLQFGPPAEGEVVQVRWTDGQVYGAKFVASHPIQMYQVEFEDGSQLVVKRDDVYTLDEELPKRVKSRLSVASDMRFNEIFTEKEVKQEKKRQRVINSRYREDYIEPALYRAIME
# [38] = target: JMJD2B (Homo sapiens, UniProt O94953); details: cited from earlier work
# [39] = tested on: trimethylation of the PRC2 target H3K27; details: cited from earlier work
# [40] = target: G9a and GLP methyltransferases; details: competitive with H3K9 substrates; cited from earlier work
# [41] = tested on: H3K9 dimethylation levels in PANC-1 cells; details: cited from earlier work
# [42] = target: HDAC8 (Homo sapiens, UniProt Q9BY41); details: cited from earlier work
# [43] = target: T3, JAK2 (Homo sapiens, UniProt O60674, V617F); details: in HEL cells; cited from earlier work
# T3 construct: endogenous in cells; host or cells: HEL cells
# [44] = target: T4, STAT3 (Homo sapiens, UniProt P40763); details: in HEL cells; cited from earlier work
# T4 construct: endogenous in cells; host or cells: HEL cells
# [45] = tested on: histone methylation in cells; details: cited from earlier work
# [46] = target: DNA methyltransferase; details: cited from earlier work
# Sequence of SIRT2 (Q8IXJ6 whole entry, species assumed): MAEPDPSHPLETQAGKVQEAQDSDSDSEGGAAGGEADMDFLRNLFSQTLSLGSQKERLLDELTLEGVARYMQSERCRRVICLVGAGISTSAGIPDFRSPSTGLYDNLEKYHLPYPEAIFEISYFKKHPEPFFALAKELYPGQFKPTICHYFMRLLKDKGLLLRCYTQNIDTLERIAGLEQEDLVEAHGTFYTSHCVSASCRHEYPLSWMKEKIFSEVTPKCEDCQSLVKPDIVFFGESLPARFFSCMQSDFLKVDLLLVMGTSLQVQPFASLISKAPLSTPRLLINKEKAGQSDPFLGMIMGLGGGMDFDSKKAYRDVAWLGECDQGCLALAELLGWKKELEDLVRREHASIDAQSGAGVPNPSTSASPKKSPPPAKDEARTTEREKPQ
molecule,measurement,setting,value
c1ccc([C@@H]2C[C@H]2NC2CCNCC2)cc1 [GSK-LSD1 (hydrochloride)],EC50,[1],< 5 nM
N#C/C(=C\c1ccc(-c2cc(Cl)ccc2Cl)o1)C(=O)Nc1cccc2cccnc12 [AGK7],IC50,[2],> 50000 nM
same,IC50,[3],> 5000 nM
C#CCCCC(=O)Nc1ccc(C(=O)c2ccc(NC(=O)CCCCCCC(=O)NO)cc2)cc1 [SAHA-BPyne],IC50,[4],~3000 nM
CN(C)CCCNC(=O)c1ccc(-c2cc(O)c3ncccc3c2)cc1 [ML324],IC50,[5],920 nM
O=C1COc2c(CCNCCN(C(=O)CCNCCc3ccc(Cl)c(Cl)c3)C3CCCCC3)ccc(O)c2N1 [AZ 505],IC50,[6],120 nM
O=C(/C=C/c1cccc(C(=O)NO)c1)NO [CBHA],neuroblastoma tumor growth,[7],completely suppresses neuroblastoma tumor growth in SCID
CC[C@H](C)n1cc(C)c2c(C(=O)NCc3c(C)cc(C)[nH]c3=O)cc(-c3ccc(N4CCNCC4)nc3)cc21 [GSK 126],IC50,[8],680 nM
same,Ki,[8],89 nM
same,IC50,[9],28 to 61 nM
COC(=O)c1ccc(N2CCN(C)CC2)c(NC(=O)c2cccc(OC)c2)c1 [WDR5-0103],Kd,[10],450 nM
same,IC50,[11],39000 nM
Cc1cn(CCN2CCN(c3ccccc3-c3cc(C#N)cc(C(=O)NCCCN4CCCC4)c3)CC2)c2ccccc12 [LLY-507],IC50,[12],~600 nM
CC(=O)N1c2ccc(-c3ccc(C(=O)O)cc3)cc2[C@H](Nc2ccc(Cl)cc2)C[C@@H]1C [GSK1324726A (I-BET726)],IC50,[13],41 nM
same,IC50,[14],31 nM
O=C(Nc1ccc2c(O)cc(S(=O)(=O)O)cc2c1)Nc1ccc2c(O)cc(S(=O)(=O)O)cc2c1 [AMI-1 (sodium salt)],IC50,[15],3000 nM
same,IC50,[16],5000 nM
O=C(O)CCNc1cc(N2CCc3ccccc3CC2)nc(-c2ccccn2)n1 [GSK-J1 (sodium salt)],IC50,[17],56000 nM
C(=N\Nc1ncnc2sc3c(c12)CCCC3)/c1c[nH]c2ccccc12 [B32B3],IC50,[18],500 nM
CCCCCCCc1ccc(CCc2cccc(O)c2C(=O)O)cc1 [MG149],IC50,[19],47000 nM
CN(C)CC(=O)Nc1ccc2[nH]c(=O)c3ccccc3c2c1 [PJ34],EC50,[20],20 nM
CCCc1cc(C)[nH]c(=O)c1CNC(=O)c1cc(-c2ccc(N3CCN(C(C)C)CC3)nc2)cc2c1cnn2C(C)C [UNC1999],IC50,[21],2 nM
same,IC50,[22],124 nM
CCCc1cc(C)[nH]c(=O)c1CNC(=O)c1cc(-c2ccnc(N3CCN(C)CC3)c2)cc2c1cnn2C(C)C [GSK343],IC50,[21],4 nM
same,IC50,[23],174 nM
O=c1[nH]c(=S)[nH]c(-c2ccccc2)c1Cc1c(O)ccc2ccccc12 [SIRT1/2 Inhibitor IV],IC50,[24],> 300000 nM
CCOC(=O)NCCCC(=O)NCCc1ccccc1 [CAY10683],IC50,[25],0.119 nM
same,IC50,[26],> 1000 nM
same,GI50,[27],29400 nM
same,GI50,[28],1400 nM
same,GI50,[29],> 100000 nM
same,IC50,[30],434 nM
CCC(=O)N1CCOc2c(cc(-c3ccc(OC)c(OC)c3)cc2OC[C@H]2CCCN(C)C2)C1 [I-CBP112 (hydrochloride)],Kd,[31],142 nM
AG-490 (Tyrphostin B42),fold more selective for EGFR versus ErbB2,[32],135 fold
CCC(CC)n1ccc2c(C(=O)NCc3c(C)cc(C)[nH]c3=O)cc(C#N)cc21 [EI1],IC50,[21],15 nM
same,IC50,[33],13 nM
COc1cc2c(NC3CCN(C4CCCCC4)CC3)nc(N3CCCN(C(C)C)CC3)nc2cc1OCCCN1CCCCC1 [UNC0646],IC50,[34],15 nM
same,IC50,[35],26 nM
CC(C)(C)OC(=O)CN(Cc1ccc(Cl)cc1)Cc1ccc([N+](=O)[O-])s1 [GSK4112],EC50,[36],400 nM
Clc1ccc(N/N=C(\c2ccccc2)c2ccccn2)nc1 [JIB-04],IC50,[37],445 nM
same,IC50,[38],435 nM
Cc1cc(C)c(CNC(=O)c2cc(-c3ccc(CN4CCOCC4)cc3)cc3c2cnn3C2CCCC2)c(=O)[nH]1 [EPZ005687],IC50,[39],80 nM
COc1cc2c(NC3CCN(C(C)C)CC3)nc(N3CCC(F)(F)CC3)nc2cc1OCCCN1CCCC1 [UNC0642],IC50,[35],110 nM
same,Ki,[40],3.7 nM
same,IC50,[41],40 nM
Cc1cc(Cl)ccc1OCCCC(=O)NO [Droxinostat],IC50,[42],1460 nM
C[C@H](NC(=O)/C(C#N)=C/c1cccc(Br)n1)c1ccccc1 [WP1066],IC50,[43],2300 nM
same,IC50,[44],2430 nM
O=C(NCC(=O)N1CCCC1)Nc1ccc2cnccc2c1 [SGC707],IC50,[45],< 1000 nM
O=C(O)C(Cc1c[nH]c2ccccc12)N1C(=O)c2ccccc2C1=O (centres unmarked) [RG108],IC50,[46],115 nM
